Publication PMC10175918 (Communications Biology, 2023)
Where two headings read alike, the source gives them in different places.

How the values were obtained:
Experiment in all cases: TGFα-shedding assay-based GPCR screening with chimeric Gα subunit proteins
Assay type in all cases: cell-based
348 GPCRs [1] = biological target: 348 GPCRs (Homo sapiens, UniProt P25021); conditions: 10µM, Favipiravir 100μM
348 GPCRs [2] = biological target: 348 GPCRs (Homo sapiens, UniProt P28566); conditions: 5-HT1E (5-hydroxytryptamine receptor 1E); 10µM, Favipiravir 100μM
348 GPCRs (Homo sapiens, UniProt P28566), sequence (P28566 whole entry): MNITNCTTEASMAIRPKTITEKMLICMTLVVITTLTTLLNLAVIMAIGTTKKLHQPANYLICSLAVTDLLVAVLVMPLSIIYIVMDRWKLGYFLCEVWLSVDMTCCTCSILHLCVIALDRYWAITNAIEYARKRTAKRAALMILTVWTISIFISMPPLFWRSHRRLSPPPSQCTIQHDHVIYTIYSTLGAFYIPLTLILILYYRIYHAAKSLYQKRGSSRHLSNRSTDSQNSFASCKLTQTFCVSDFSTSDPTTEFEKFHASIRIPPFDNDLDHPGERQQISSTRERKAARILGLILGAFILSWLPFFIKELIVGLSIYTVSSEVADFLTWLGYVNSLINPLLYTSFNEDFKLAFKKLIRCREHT

348 GPCRs [3] = biological target: T1, 348 GPCRs (Homo sapiens, UniProt P29371); conditions: 10µM, Favipiravir 100μM
T1 construct: expressed in transfected cells; host or cells: HEK293A
T1 sequence (P29371 1-465): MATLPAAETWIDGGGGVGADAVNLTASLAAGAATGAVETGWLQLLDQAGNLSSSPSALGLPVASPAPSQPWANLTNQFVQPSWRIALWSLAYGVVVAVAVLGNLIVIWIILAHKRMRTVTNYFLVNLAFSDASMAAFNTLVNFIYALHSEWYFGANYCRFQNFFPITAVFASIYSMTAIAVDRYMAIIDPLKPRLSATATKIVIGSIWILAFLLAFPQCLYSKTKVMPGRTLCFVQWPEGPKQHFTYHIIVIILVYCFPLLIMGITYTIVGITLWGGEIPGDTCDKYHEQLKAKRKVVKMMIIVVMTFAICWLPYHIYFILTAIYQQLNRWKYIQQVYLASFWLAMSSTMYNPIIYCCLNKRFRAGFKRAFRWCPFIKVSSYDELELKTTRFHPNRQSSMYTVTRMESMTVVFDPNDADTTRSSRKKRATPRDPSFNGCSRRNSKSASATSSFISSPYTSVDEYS

348 GPCRs [4] = biological target: T2, 348 GPCRs (Homo sapiens, UniProt P32239); conditions: 10µM, Favipiravir 100μM
T2 sequence (P32239 1-447): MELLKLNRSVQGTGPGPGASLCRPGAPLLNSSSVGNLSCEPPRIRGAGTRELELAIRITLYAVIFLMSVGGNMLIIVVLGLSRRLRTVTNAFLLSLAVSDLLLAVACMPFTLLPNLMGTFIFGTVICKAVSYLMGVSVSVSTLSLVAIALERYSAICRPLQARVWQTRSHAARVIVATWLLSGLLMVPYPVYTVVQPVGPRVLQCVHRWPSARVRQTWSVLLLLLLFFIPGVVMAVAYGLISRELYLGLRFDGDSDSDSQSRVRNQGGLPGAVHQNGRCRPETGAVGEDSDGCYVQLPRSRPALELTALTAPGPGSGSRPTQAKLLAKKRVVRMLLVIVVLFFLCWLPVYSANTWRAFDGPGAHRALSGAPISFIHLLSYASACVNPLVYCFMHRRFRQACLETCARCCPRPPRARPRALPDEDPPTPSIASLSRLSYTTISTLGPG

348 GPCRs [5] = biological target: T3, 348 GPCRs (Homo sapiens, UniProt P35368)
T3 construct: expressed in transfected cells; host or cells: HEK293A
T3 sequence (P35368 1-520): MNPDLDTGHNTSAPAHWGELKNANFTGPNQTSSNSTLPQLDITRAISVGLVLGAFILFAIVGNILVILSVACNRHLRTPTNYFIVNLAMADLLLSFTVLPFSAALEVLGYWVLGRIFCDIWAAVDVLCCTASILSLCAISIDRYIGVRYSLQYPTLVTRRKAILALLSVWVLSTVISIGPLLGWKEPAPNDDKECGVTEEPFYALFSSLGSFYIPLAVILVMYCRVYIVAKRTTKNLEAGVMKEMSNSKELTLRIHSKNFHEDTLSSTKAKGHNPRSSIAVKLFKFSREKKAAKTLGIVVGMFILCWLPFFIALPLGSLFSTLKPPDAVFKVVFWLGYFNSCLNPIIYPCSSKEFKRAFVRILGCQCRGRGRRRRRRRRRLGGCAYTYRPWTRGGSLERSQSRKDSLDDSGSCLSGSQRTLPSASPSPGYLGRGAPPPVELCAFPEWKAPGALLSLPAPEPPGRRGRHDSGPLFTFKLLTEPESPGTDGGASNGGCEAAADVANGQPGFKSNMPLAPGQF

348 GPCRs [6] = biological target: T4, 348 GPCRs (Homo sapiens, UniProt P46094)
T4 construct: expressed in transfected cells; host or cells: HEK293A
T4 sequence (P46094 1-333): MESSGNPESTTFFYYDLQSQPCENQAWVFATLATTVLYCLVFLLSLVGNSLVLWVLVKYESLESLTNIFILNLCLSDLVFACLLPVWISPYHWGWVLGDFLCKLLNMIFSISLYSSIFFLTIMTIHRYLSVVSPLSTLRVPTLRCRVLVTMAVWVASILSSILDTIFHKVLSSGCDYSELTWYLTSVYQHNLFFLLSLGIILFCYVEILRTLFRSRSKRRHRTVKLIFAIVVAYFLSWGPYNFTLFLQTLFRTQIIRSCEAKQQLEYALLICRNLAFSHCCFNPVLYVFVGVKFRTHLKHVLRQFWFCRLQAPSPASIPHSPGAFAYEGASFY

348 GPCRs [7] = biological target: T5, 348 GPCRs (Homo sapiens, UniProt Q13639); conditions: 10µM, Favipiravir 100μM
T5 construct: expressed in transfected cells; host or cells: HEK293A
T5 sequence (Q13639 whole entry): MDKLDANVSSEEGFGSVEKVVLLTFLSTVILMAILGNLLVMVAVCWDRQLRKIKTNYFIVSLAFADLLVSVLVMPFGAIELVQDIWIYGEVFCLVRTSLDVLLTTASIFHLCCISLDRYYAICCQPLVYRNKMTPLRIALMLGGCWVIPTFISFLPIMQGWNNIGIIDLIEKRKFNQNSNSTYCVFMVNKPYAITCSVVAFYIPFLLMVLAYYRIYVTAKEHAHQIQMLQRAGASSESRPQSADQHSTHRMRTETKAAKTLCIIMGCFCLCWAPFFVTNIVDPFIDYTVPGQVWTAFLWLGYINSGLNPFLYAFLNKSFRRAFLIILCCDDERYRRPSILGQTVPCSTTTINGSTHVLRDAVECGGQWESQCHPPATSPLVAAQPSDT

348 GPCRs [8] = biological target: T6, 348 GPCRs (Homo sapiens, UniProt Q96CH1); conditions: 10µM, Favipiravir 100μM
T6 construct: expressed in transfected cells; host or cells: HEK293A
T6 sequence (Q96CH1 whole entry): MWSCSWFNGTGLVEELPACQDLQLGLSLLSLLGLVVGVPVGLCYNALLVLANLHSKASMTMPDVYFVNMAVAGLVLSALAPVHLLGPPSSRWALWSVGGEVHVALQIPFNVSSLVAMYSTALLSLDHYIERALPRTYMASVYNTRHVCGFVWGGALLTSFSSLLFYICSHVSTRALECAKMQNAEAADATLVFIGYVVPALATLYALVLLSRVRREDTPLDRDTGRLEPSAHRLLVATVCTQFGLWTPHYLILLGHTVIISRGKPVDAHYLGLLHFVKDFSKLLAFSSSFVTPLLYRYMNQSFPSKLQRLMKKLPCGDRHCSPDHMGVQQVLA

348 GPCRs [9] = biological target: T7, 348 GPCRs (Homo sapiens, UniProt Q9BXC1); conditions: 10µM, Favipiravir 100μM
T7 construct: expressed in transfected cells; host or cells: HEK293A
T7 sequence (Q9BXC1 whole entry): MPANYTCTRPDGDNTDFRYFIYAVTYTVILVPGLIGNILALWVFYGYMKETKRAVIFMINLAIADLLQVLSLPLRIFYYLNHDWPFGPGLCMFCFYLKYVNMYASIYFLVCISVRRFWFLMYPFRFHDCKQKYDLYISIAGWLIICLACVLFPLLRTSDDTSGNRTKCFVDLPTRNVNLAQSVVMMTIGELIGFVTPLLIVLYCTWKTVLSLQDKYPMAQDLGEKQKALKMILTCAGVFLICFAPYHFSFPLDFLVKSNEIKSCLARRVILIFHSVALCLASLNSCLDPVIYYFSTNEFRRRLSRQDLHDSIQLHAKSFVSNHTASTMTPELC

348 GPCRs [10] = biological target: T8, 348 GPCRs (Homo sapiens, UniProt Q9GZN0); conditions: 10µM, Favipiravir 100μM
T8 construct: expressed in transfected cells; host or cells: HEK293A
T8 sequence (Q9GZN0 whole entry): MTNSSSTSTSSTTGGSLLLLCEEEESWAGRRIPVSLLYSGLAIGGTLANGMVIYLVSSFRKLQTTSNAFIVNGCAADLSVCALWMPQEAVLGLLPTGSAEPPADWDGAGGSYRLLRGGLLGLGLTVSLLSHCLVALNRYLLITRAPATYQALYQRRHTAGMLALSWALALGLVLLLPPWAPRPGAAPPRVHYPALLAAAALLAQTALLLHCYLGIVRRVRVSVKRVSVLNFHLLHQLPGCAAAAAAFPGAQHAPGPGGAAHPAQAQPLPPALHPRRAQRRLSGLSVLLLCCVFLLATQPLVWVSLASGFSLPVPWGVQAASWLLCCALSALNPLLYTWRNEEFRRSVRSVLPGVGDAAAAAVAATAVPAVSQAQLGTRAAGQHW

348 GPCRs [11] = biological target: T9, 348 GPCRs (Homo sapiens, UniProt Q9NQ84); conditions: 10µM, Favipiravir 100μM
T9 construct: expressed in transfected cells; host or cells: HEK293A
T9 sequence (Q9NQ84 24-441): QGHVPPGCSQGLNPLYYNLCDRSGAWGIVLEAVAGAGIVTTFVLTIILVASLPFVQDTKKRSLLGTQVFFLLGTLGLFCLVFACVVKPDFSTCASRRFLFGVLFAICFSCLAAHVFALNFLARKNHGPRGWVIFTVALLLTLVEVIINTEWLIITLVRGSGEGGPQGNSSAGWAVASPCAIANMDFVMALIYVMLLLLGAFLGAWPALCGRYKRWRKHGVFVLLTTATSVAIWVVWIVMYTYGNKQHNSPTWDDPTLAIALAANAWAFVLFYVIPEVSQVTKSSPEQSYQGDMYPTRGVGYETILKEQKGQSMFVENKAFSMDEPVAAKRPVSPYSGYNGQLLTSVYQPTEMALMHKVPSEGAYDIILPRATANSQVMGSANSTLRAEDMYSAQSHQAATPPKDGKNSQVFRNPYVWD

[12] = H2 (histamine receptor H2), read-out: % GPCR activation compared to TPA
[13] = NK3 (tachykinin receptor 3), read-out: % GPCR activation compared to TPA
[14] = CCKBR (cholecystokinin B receptor), read-out: % GPCR activation compared to TPA
[15] = GPCR α1B (adrenoceptor alpha 1B), read-out: % GPCR activation compared to TPA
[16] = GPCR XCR1 (chemokine (C motif) receptor 1/GPR5), read-out: % GPCR activation compared to TPA
[17] = HTR4 (5-hydroxytryptamine (serotonin) receptor 4), read-out: % GPCR activation compared to TPA
[18] = GPR146 (G protein-coupled receptor 146), read-out: % GPCR activation compared to TPA
[19] = GPR174 (G-Protein Coupled Receptor 174), read-out: % GPCR activation compared to TPA
[20] = GPR88 (G Protein-Coupled Receptor 88), read-out: % GPCR activation compared to TPA
[21] = GPRC5C (G protein-coupled receptor, family C, group 5, member C), read-out: % GPCR activation compared to TPA
[22] = read-out: % GPCR activation compared to TPA, H2 (histamine receptor H2)
[23] = read-out: % GPCR activation compared to TPA, NK3 (tachykinin receptor 3)
[24] = read-out: % GPCR activation compared to TPA, CCKBR (cholecystokinin B receptor)
[25] = read-out: % GPCR activation compared to TPA, GPCR α1B (adrenoceptor alpha 1B)
[26] = read-out: % GPCR activation compared to TPA, GPCR XCR1 (chemokine (C motif) receptor 1/GPR5)
[27] = read-out: % GPCR activation compared to TPA, HTR4 (5-hydroxytryptamine (serotonin) receptor 4)
[28] = read-out: % GPCR activation compared to TPA, GPR146 (G protein-coupled receptor 146)
[29] = read-out: % GPCR activation compared to TPA, GPR174 (G-Protein Coupled Receptor 174)
[30] = read-out: % GPCR activation compared to TPA, GPR88 (G Protein-Coupled Receptor 88)
[31] = read-out: % GPCR activation compared to TPA, GPRC5C (G protein-coupled receptor, family C, group 5, member C)

348 GPCRs (Homo sapiens, UniProt P25021), sequence (P25021 whole entry): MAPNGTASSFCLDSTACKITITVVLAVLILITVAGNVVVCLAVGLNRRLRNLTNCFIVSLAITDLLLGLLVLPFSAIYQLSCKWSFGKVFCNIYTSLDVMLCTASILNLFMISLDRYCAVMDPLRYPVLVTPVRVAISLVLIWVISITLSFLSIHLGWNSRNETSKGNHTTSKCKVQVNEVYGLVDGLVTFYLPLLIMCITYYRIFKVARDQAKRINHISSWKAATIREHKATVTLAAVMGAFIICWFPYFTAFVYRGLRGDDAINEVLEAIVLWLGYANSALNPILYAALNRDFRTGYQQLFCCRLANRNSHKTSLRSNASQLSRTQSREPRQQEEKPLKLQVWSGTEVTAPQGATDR

| SMILES | activation at 10 µM (348 GPCRs [1]; [12]) [%] | % GPCR activation compared to TPA (348 GPCRs [2]) [%] | activation at 10 µM (348 GPCRs [3]; [13]) [%] | activation at 100 µM (348 GPCRs [4]; [14]) [%] | activation at 10 µM (348 GPCRs [5]; [15]) [%] | activation at 10 µM (348 GPCRs [6]; [16]) [%] | activation at 100 µM (348 GPCRs [7]; [17]) [%] | activation at 100 µM (348 GPCRs [8]; [18]) [%] | activation at 100 µM (348 GPCRs [9]; [19]) [%] | activation at 100 µM (348 GPCRs [10]; [20]) [%] | activation at 100 µM (348 GPCRs [11]; [21]) [%] | activation at 10 µM (348 GPCRs [1]; [22]) [%] | activation at 10 µM (348 GPCRs [3]; [23]) [%] | activation at 100 µM (348 GPCRs [4]; [24]) [%] | activation at 10 µM (348 GPCRs [5]; [25]) [%] | activation at 10 µM (348 GPCRs [6]; [26]) [%] | activation at 100 µM (348 GPCRs [7]; [27]) [%] | activation at 100 µM (348 GPCRs [8]; [28]) [%] | activation at 100 µM (348 GPCRs [9]; [29]) [%] | activation at 100 µM (348 GPCRs [10]; [30]) [%] | also measured |
| --- | --- | --- | --- | --- | --- | --- | --- | --- | --- | --- | --- | --- | --- | --- | --- | --- | --- | --- | --- | --- | --- |
| CCC(CC)COC(=O)[C@H](C)N[P@](=O)(OC[C@H]1O[C@@](C#N)(c2ccc3c(N)ncnn23)[C@H](O)[C@@H]1O)Oc1ccccc1 [remdesivir] | – | -0.07183 | – | – | – | – | – | – | – | – | – | 2.05 | -0.179 | 7.72 | -0.0202 | 0.628 | -2.24 | 1.36 | 1.12 | -0.608 | activation at 100 µM (348 GPCRs [11]; [31]): -1.81% |
| CC(C)OC(=O)[C@H](C)N[P@](=O)(OC[C@H]1O[C@@H](n2ccc(=O)[nH]c2=O)[C@](C)(F)[C@@H]1O)Oc1ccccc1 [sofosbuvir] | – | -1.207 | – | – | – | – | – | – | – | – | – | -0.476 | -1.94 | -2.44 | 0.342 | -0.208 | -4.08 | -6.46 | -1.73 | -0.818 | activation at 100 µM (348 GPCRs [11]; [31]): -0.501% |

More lines, main results first:

| activation at 10 µM (348 GPCRs [1]; [12]) [%] | % GPCR activation compared to TPA (348 GPCRs [2]) [%] | activation at 10 µM (348 GPCRs [3]; [13]) [%] | activation at 100 µM (348 GPCRs [4]; [14]) [%] | activation at 10 µM (348 GPCRs [5]; [15]) [%] | activation at 10 µM (348 GPCRs [6]; [16]) [%] | activation at 100 µM (348 GPCRs [7]; [17]) [%] | activation at 100 µM (348 GPCRs [8]; [18]) [%] | activation at 100 µM (348 GPCRs [9]; [19]) [%] | activation at 100 µM (348 GPCRs [10]; [20]) [%] | activation at 100 µM (348 GPCRs [11]; [21]) [%] | SMILES | activation at 10 µM (348 GPCRs [1]; [22]) [%] | activation at 10 µM (348 GPCRs [3]; [23]) [%] | activation at 100 µM (348 GPCRs [4]; [24]) [%] | activation at 10 µM (348 GPCRs [5]; [25]) [%] | activation at 10 µM (348 GPCRs [6]; [26]) [%] | activation at 100 µM (348 GPCRs [7]; [27]) [%] | activation at 100 µM (348 GPCRs [8]; [28]) [%] | activation at 100 µM (348 GPCRs [9]; [29]) [%] | activation at 100 µM (348 GPCRs [10]; [30]) [%] | also measured |
| --- | --- | --- | --- | --- | --- | --- | --- | --- | --- | --- | --- | --- | --- | --- | --- | --- | --- | --- | --- | --- | --- |
| -1.14 | -1.385 | -0.811 | 6.14 | -1.17 | -1.92 | -1.56 | 0.00864 | -2.64 | -2.34 | -1 | N#C[C@@]1(c2ccc3c(N)ncnn23)O[C@H](CO)[C@@H](O)[C@H]1O [GS441524] | – | – | – | – | – | – | – | – | – | – |
| 0.663 | 0.5554 | -0.777 | 4.12 | – | – | -3.64 | 0.0656 | -2.2 | -1.1 | -1.31 | NC(=O)c1nc(F)cnc1O [favipiravir, 6-fluoro-3-hydroxy-2-pyrazinecarboxamide] | – | – | – | – | – | – | – | – | – | activation at 100 µM (348 GPCRs [5]; GPCR α1B (adrenoceptor alpha 1B), 100μM, read-out: % GPCR activation compared to TPA): -1.61%; activation at 100 µM (348 GPCRs [6]; GPCR XCR1 (chemokine (C motif) receptor 1/GPR5), 100μM, read-out: % GPCR activation compared to TPA): 0.846% |
| -0.335 | -0.994 | -1.59 | -2.83 | 0.493 | -0.399 | -3.37 | -4.56 | -2 | -1.19 | -0.707 | CC(C)C(=O)OC[C@H]1O[C@@H](n2ccc(NO)nc2=O)[C@H](O)[C@@H]1O [molnupiravir] | – | – | – | – | – | – | – | – | – | – |
